According to PubChem BioAssay AID1963843 (Molecular Pharmacology Branch, DTP, NCI, 2024):
Several values for one entry are separate records, joined by “and”; a condition that tells them apart may be missing. Identical values can stand only once.

System: 616215-338-R-J1-PDC complex spheroid viability
Assay: Anticancer human tumor 616215-338-R-J1-PDC patient-derived colon adenocarcinoma cell line growth inhibition [POLQ]
Details: for viability, T/C: stronger effect = lower value; for IC50: curve of compound
Procedure: Multicellular complex tumor spheroid response to Polymerase (POL) inhibitors (novobiocin, ART-558, RP6685) in combination with a variety of drugs and investigational agents in selected tumor cell lines
The POL inhibitors (novobiocin, ART-558, and RP6685) were evaluated both individually and in combination with standard of care and investigational anticancer small molecules within a complex spheroid model of solid tumors. . Complex spheroids include a stromal component modeled by human endothelial cells (HUVEC) and fibroblasts modeled by human mesenchymal stem cells (MSCs). The concentration ranges selected for each drug and investigational agent were based upon clinically achievable concentrations if the clinical Cmax of the agent was known.
Compounds. The drugs and investigational agents: novobiocin (NSC847541), ART-558 (NSC835418), RP-6685 (NSC848927), peposertib (NSC802822), ceralasertib (NSC780249), elimusertib (NSC800525), camonsertib (NSC841442), AZD-1390 (NSC803789), olaparib (NSC753686), talazoparib (NSC767125), rucaparib (NSC756644), sotorasib (NSC818433), MRTX-1133 (NSC836407), SN-38 (NSC673596), topotecan (NSC609699), epotoside (NSC141540), doxorubicin (NSC123127), gemcitabine (NSC613327), 5-fluorouracil (NSC19893), paclitaxel (NSC125973), vemurafenib (NSC761431), MSA-2 (NSC828583), SN-011 (NSC837082), adavosertib (NSC754352), prexasertib (NSC758257), carboplatin (NSC241240) and oxaliplatin (NSC266046), were obtained from the National Cancer Institute (NCI) Developmental Therapeutics Program Chemical Repository (21). The FDA-approved anticancer drug set is available from the Developmental Therapeutics Program at https://dtp.cancer.gov/organization/dscb/obtaining/. […] The stock solutions were prepared in dimethyl sulfoxide (DMSO, Sigma-Aldrich, St. Louis, MO, cat. D2650), except for the platinum compounds which were prepared in saline (Quality Biological, Gaithersburg, MD, cat. 114-055-101), at 800-fold the tested concentration and stored at -70 degrees C prior to their use. All drugs and investigational agents were tested over a range starting from a high concentration at or near the clinical Cmax and decreasing in half-log increments. If the clinical Cmax for an agent had not been determined, the highest concentration tested was 10 microM, except for SN-38, which was tested at a high concentration of 1 microM.
Cell Culture. All cells were maintained in an incubator at 37 degrees C and 5% CO2 with 95% humidity. The PDC lines were cultured according to standard operating procedures established by the NCI PDMR (https://pdmr.cancer.gov). Table 3 of the manuscript, lists the cell lines along with the number of the three cell types plated to form the mct-spheroids and media for tumor cell growth. After thawing, all PDC lines, except 997537-175-T-J1-PDC and 415267-285-R-J2-PDC, were cultured in Matrigel-coated flasks prepared with a working solution of 1X Ham's F-12 nutrient mix, without supplementation (Thermo Fisher Scientific, cat. 11765054), 100 U/mL penicillin-streptomycin (Thermo Fisher Scientific, cat. 15140122), and 2.5% Matrigel (Corning Inc., Corning, NY, cat. 354248) for the first three passages. The two PDC lines 997537-175-T-J1-PDC and 415267-285-R-J2-PDC were cultured on uncoated flasks. The 857933-349-R-J2-PDC line was cultured in 6C/Colon 1B media containing advanced DMEM/F-12 (Thermo Fisher Scientific, cat. 12634028), 10 mM HEPES (Thermo Fisher Scientific, cat. 15630080), 1X GlutaMAX supplement (Thermo Fisher Scientific, cat. 35050061), 0.1 mg/mL primocin (InvivoGen, San Diego, CA, cat. ant-pm-2), 10% defined fetal bovine serum, heat inactivated (HyClone Laboratories Inc., Logan, UT, cat. SH30070.03HI), 50% L-WRN conditioned media (ATCC, cat. CRL-3276), 1.25 mM N-Acetyl-L-cysteine (Sigma-Aldrich, cat. A9165), 10 mM nicotinamide (Sigma-Aldrich, cat. N0636), 1X B-27 supplement (Thermo Fisher Scientific, cat. 17504044), 1X N-2 supplement (Thermo Fisher Scientific, cat. […]
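Note: spheroids exposed to compounds for one week before readout.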
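Throughout, for viability, T/C: percent viability relative to DMSO vehicle wells taken as 100%.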

Row | SMILES | viability, T/C (compound 0.0316 µM) | viability, T/C (compound 0.1 µM) | viability, T/C (compound 0.316 µM) | viability, T/C (compound 1 µM) | viability, T/C (compound 3.16 µM) | viability, T/C (compound 10 µM) | IC50 | viability, T/C (compound 0.00316 µM) | viability, T/C (compound 0.01 µM) | viability, T/C (compound 0.00949 µM) | viability, T/C (compound 0.03 µM) | viability, T/C (compound 0.0949 µM) | viability, T/C (compound 0.3 µM) | viability, T/C (compound 0.949 µM) | viability, T/C (compound 3 µM) | viability, T/C (compound 0.000316 µM) | viability, T/C (compound 0.001 µM)
1 | C#Cc1c(F)ccc2cc(O)cc(-c3ncc4c(N5CC6CCC(C5)N6)nc(OCC56CCCN5CC(F)C6)nc4c3F)c12 (stereo not given) | 101% (2×) and 104% | 90.4% and 90.9% and 90.6% | 104% and 103% and 97.6% | 107% and 71.8% and 104% | 109% and 54.8% and 93.5% | 72.4% and 33.1% and 66.3% | > 10 µM and 3.54 µM | – | – | – | – | – | – | – | – | – | –
2 | C=CC(=O)N1CCN(c2nc(=O)n(-c3c(C)ccnc3C(C)C)c3nc(-c4c(O)cccc4F)c(F)cc23)C(C)C1 (stereo not given) | 104% and 100% and 91.5% | 94.8% and 103% and 100% | 97.3% and 99.3% and 98.2% | 97.3% and 97.5% and 99.1% | 103% and 90.9% and 104% | 87.7% and 66.7% and 91.4% | > 10 µM | – | – | – | – | – | – | – | – | – | –
3 | C=CCn1c(=O)c2cnc(Nc3ccc(N4CCN(C)CC4)cc3)nc2n1-c1cccc(C(C)(C)O)n1 | 105% and 102% and 99.9% | 93.8% and 88.6% and 96.6% | 88.4% and 64% and 54.5% | 60.4% and 31.4% and 34.6% | – | – | > 1 µM and 0.516 µM and 0.41 µM | 98.4% and 98.6% and 104% | 101% and 96.2% and 96.8% | – | – | – | – | – | – | – | –
4 | CC(=O)O[C@H]1C(=O)[C@@]2(C)[C@H]([C@H](OC(=O)c3ccccc3)[C@]3(O)C[C@H](OC(=O)[C@H](O)[C@@H](NC(=O)c4ccccc4)c4ccccc4)C(C)=C1C3(C)C)[C@]1(OC(C)=O)CO[C@@H]1C[C@@H]2O | – | – | – | – | – | – | < 0.00949 µM and 0.0258 µM | – | – | 39.3% and 41.7% and 86.3% | 23.3% and 27.1% and 44.5% | 23.8% and 24.4% and 38.2% | 15.6% and 17.9% and 35.5% | 18% and 18.2% and 36.7% | 21.7% and 17.8% and 34.3% | – | –
5 | CC(C)n1c(=O)n(C)c2cnc3cc(F)c(-c4ccc(OCCCN5CCCCC5)nc4)cc3c21 | 112% and 102% and 72.9% | 97% and 109% and 75% | 106% and 93% and 74.8% | 107% and 94.6% and 79.2% | 108% and 101% and 85.2% | 101% and 96% and 72.1% | > 10 µM | – | – | – | – | – | – | – | – | – | –
6 | CC1COCCN1c1cc(-c2ccnn2C)c2ccnc(-c3ccn[nH]3)c2n1 (stereo not given) | 95.3% and 98.7% and 94% | 102% and 90.3% and 66% | 73.7% and 70.5% and 39.4% | 60.4% and 47.1% and 31.4% | 50% and 27.1% and 28.4% | 44.6% and 40.1% and 21.7% | – | – | – | – | – | – | – | – | – | – | –
7 | CC1COCCN1c1cc(C2(O)CC3CCC(C2)O3)c2cnn(-c3ccn[nH]3)c2n1 (stereo not given) | 99.2% and 95.5% and 88% | 91.8% and 93% and 73.8% | 73.3% and 70.1% and 46.3% | 76.6% and 53.7% and 34.7% | 54% and 46% and 21% | 40.1% and 32.2% and 19.3% | – | – | – | – | – | – | – | – | – | – | –
8 | CC1COCCN1c1cc(C2(S(C)(=N)=O)CC2)nc(-c2ccnc3[nH]ccc23)n1 (stereo not given) | 99.9% and 97.9% and 100% | 107% and 90.8% and 112% | 95.8% and 93.9% and 108% | 99.2% and 99.4% and 95.3% | 99% and 74.6% and 107% | 71.5% and 39.9% and 74.1% | > 10 µM and 7.18 µM | – | – | – | – | – | – | – | – | – | –
9 | CCCS(=O)(=O)Nc1ccc(F)c(C(=O)c2c[nH]c3ncc(-c4ccc(Cl)cc4)cc23)c1F | 106% and 102% and 108% | 97.4% and 107% (2×) | 105% and 102% and 97.8% | 107% and 102% and 95.8% | 101% (2×) and 91.2% | 10.8% and 13.5% and 20.5% | 6.07 µM and 6.2 µM and 6.12 µM | – | – | – | – | – | – | – | – | – | –
10 | CC[C@@]1(O)C(=O)OCc2c1cc1n(c2=O)Cc2cc3c(CN(C)C)c(O)ccc3nc2-1 | 111% and 70.1% and 103% | 82.6% and 39% and 93.5% | – | – | – | – | > 0.1 µM and 0.0666 µM | 99.6% and 109% and 96.2% | 97.7% and 101% and 110% | – | – | – | – | – | – | 83.5% and 113% and 93.4% | 99.2% and 100% and 96.4%
11 | CCc1c2c(nc3ccc(O)cc13)-c1cc3c(c(=O)n1C2)COC(=O)[C@]3(O)CC | 66.5% and 33.8% and 61.6% | 51.2% and 26.8% and 51.4% | 29.8% and 16.6% and 34.1% | 16.3% and 9.67% and 18% | – | – | – | 96.8% and 81.2% and 106% | 92.7% and 44.1% and 89.9% | – | – | – | – | – | – | – | –
12 | CCc1cc2c(N3CCc4c(cc(Cn5ccnc5)cc4-c4cn(C)nc4C(F)(F)F)C3=O)cc(C)nc2c(OC)n1 | 111% and 112% and 115% | 99.7% and 102% and 100% | 103% and 79.5% and 78.1% | 98.2% and 62.6% and 69.1% | 62.3% and 54.4% and 53.4% | 51.3% and 41.3% and 39.7% | > 10 µM and 3.64 µM and 4.13 µM | – | – | – | – | – | – | – | – | – | –
13 | CCc1cc2c(N3CCc4c(cc(Cn5ccnc5)cc4-c4cn(C)nc4C(F)(F)F)C3=O)ccnc2c(OC)n1 | 93.8% and 107% and 110% | 106% and 93.5% and 101% | 111% and 89.7% and 94.4% | 107% and 75.4% and 60.1% | 79.1% and 52.8% and 53.1% | 49.8% and 47.7% and 43.4% | > 10 µM and 6.52 µM and 2.81 µM | – | – | – | – | – | – | – | – | – | –
14 | CNCc1ccc(-c2[nH]c3cc(F)cc4c3c2CCNC4=O)cc1 | 92.7% and 108% and 87.4% | 99.1% and 101% and 106% | 102% and 104% and 96.3% | 96.4% and 106% and 107% | 103% and 107% and 96.9% | 90.2% and 26.3% and 83.5% | > 10 µM and 7.08 µM | – | – | – | – | – | – | – | – | – | –
